Test results published in patent US5346897A, “Agents for potentiating the effects of antitumor agents and combating multiple drug resistance” (Burroughs Wellcome Co., priority 1992, dated 1994).
Read-outs that look alike come from different tables or passages of the source. *1 amine or outer side, *2 acyl side, *3 side chain or, on linkers, in order; H or OH if unused. Where a SMILES comes first, the peptide text is derived from it. Bridges are numbered along the chain shown (N, C = ends). Roman numbers before positions name the chains, in order. [ ]: non-standard residue; d: D form. Actinocin(9to1) = Cc1c2oc3c(C)ccc(C(=O)[*:1])c3nc-2c(C(=O)[*:2])c(N)c1=O; NMeV = CN[C@H](C(=O)O)C(C)C; Sar = CNCC(=O)O

Columns and labels:
[1] = test system: Chinese hamster ovary (CHO) tissue culture cells (AuxB1 and C5S32); test: Cytotoxicity of Actinomycin D alone in Chinese hamster ovary cells (AuxB1 and C5S32); type: cell-based
[2] = In vitro cytotoxicity of potentiating agents in human KB epidermoid carcinoma cells, drug resistant KB V-1, MTT; settings: human, kb v-1 cells
Method: (§1) The procedure for assaying the cytotoxicity of potentiating agents with human KB epidermoid carcinoma cells is essentially the same as the assay procedure described above for use with Chinese hamster ovary cells. […] After 48 hours of incubation at 37° C., the media is changed and cells are treated with actinomycin D at 0.1 nM (3-1) or 20 nM (V-i). The test potentiating agent is introduced to one-half the untreated cultures and onehalf the Act D treated cultures at 1 and 10 μM. After 96 hours of additional incubation at 37° C, 0.5 mg/ml MTT dye is added, the cells are incubated for three hours, after which the cells are dissolved in DMSO, and the absorbance is then read at 570 nm.

[3] = test system: KB V-1 human epidermoid carcinoma cells (drug resistant); test: as above; settings: KB V-1 drug resistant, 96 h, Act D alone = 1.00
Method: as §1

[4] = In vitro cytotoxicity of potentiating agents in Chinese hamster ovary cells, multidrug resistant C5S32 line, MTT; type: cell-based; settings: hamster, c5s32 cho cells, C5S32 drug resistant, no Act D, untreated = 1.00, read-out: Normalized absorbance (cell survival), potentiating agent alone, fraction of untreated culture
[5] = test system: C5S32 Chinese hamster ovary cells (drug resistant); test: as above; type: cell-based; settings: 96 h, Act D alone = 1.00
[6] = in vitro; settings: human, kb 3-1 cells
Method: as §1

[7] = in vitro; type: cell-based, Chinese hamster; settings: hamster, auxb1 cho cells
[8] = test system: AuxB1 Chinese hamster ovary cells (wildtype); test: in vitro; type: cell-based; settings: auxb1 cho cells, 96 h
[9] = test system: KB 3-1 human epidermoid carcinoma cells (wildtype); settings: kb 3-1 cells, 96 h
Method: as §1

[10] = test system: resistant sublines of murine leukemia cells; settings: Tsuruo et al., Cancer Res.; cited from earlier work

## Cc1c2oc3c(C)ccc(C(=O)N[C@@H]4C(=O)N[C@H](C(C)C)C(=O)N5CCC[C@H]5C(=O)N(C)CC(=O)N(C)[C@@H](C(C)C)C(=O)O[C@@H]4C)c3nc-2c(C(=O)N[C@@H]2C(=O)N[C@H](C(C)C)C(=O)N3CCC[C@H]3C(=O)N(C)CC(=O)N(C)[C@@H](C(C)C)C(=O)O[C@@H]2C)c(N)c1=O [Actinomycin D] (I: T[dV]P[Sar][NMeV] / II: T[dV]P[Sar][NMeV]; ester I:1-I:C, II:1-II:C; linker I:N-II:N via Actinocin(9to1))
[1]; Act D alone (0.01 μM AuxB1, 0.5 μM C5S32), in most experiments
  reduction in cell number below the value of completely untreated cultures: 10-20%
[1]; C5S32 vs AuxB1
  resistance of C5S32 cells to Actinomycin D compared to the parental AuxB1 cell line: about 200 fold

## CCOC(=O)/C=C/c1cccc(/C(=C/CN2CCCC2)c2ccc(C)cc2)n1 [Compound (B), Ethyl (E)-3-{6-[3-pyrrolidino-l-(4-tolyl)prop-lE-enyl]-2-pyridyl}acrylate]
[2]
  viability at 96 h, 1 µM: 36%
  viability at 96 h, 10 µM: 14%
[3]; potentiating agent 1 μM + actinomycin D 20 nM
  Normalized absorbance (cell survival), potentiating agent + Act D, fraction of Act D alone: 0.48
[3]; potentiating agent 10 μM + actinomycin D 20 nM
  Normalized absorbance (cell survival), potentiating agent + Act D, fraction of Act D alone: 0.04
[4]; potentiating agent 1 μM
  viability at 96 h, 1 µM: 77%
[4]; potentiating agent 10 μM
  viability at 96 h, 10 µM: 52%
[5]; potentiating agent 1 μM + Act D 0.5 μM
  Normalized absorbance (cell survival), potentiating agent + Act D, fraction of Act D alone: 0.63
[5]; potentiating agent 10 μM + Act D 0.5 μM
  Normalized absorbance (cell survival), potentiating agent + Act D, fraction of Act D alone: 0.14
[6]
  viability at 96 h, 1 µM: 58%
  viability at 96 h, 10 µM: 37%
[7]
  viability at 96 h, 1 µM: 92%
  viability at 96 h, 10 µM: 93%
[8]; 1 µM
  Normalized absorbance (cell survival), potentiating agent + Act D, fraction of Act D alone: 0.63
[8]; 10 µM
  Normalized absorbance (cell survival), potentiating agent + Act D, fraction of Act D alone: 0.29
[9]; 1 µM
  Normalized absorbance (cell survival), potentiating agent + Act D, fraction of Act D alone: 0.55
[9]; 10 µM
  Normalized absorbance (cell survival), potentiating agent + Act D, fraction of Act D alone: 0.45

## COc1ccc(CCN(C)CCCC(C#N)(c2ccc(OC)c(OC)c2)C(C)C)cc1OC (stereo not shown) [Verapamil]
[10]
  enhancement of the activity of antitumor agents against resistant sublines of murine leukemia cells: enhance the activity of antitumor agents

## CCN(CC)CCn1c(=O)c(Cc2ccc(OC)cc2)nc2ccccc21 [caroverine]
[10]
  enhancement of the activity of antitumor agents against resistant sublines of murine leukemia cells: enhance the activity of antitumor agents

## CN(C)CCCN1c2ccccc2CCc2ccc(Cl)cc21 [clomipramine]
[10]
  enhancement of the activity of antitumor agents against resistant sublines of murine leukemia cells: enhance the activity of antitumor agents

## COc1ccc([C@@H]2Sc3ccccc3N(CCN(C)C)C(=O)[C@@H]2OC(C)=O)cc1 [diltiazem]
[10]
  enhancement of the activity of antitumor agents against resistant sublines of murine leukemia cells: enhance the activity of antitumor agents

## COC(=O)C1=C(C)NC(C)=C(C(=O)OCCN(C)Cc2ccccc2)C1c1cccc([N+](=O)[O-])c1 (stereo not shown) [nicardipine]
[10]
  enhancement of the activity of antitumor agents against resistant sublines of murine leukemia cells: enhance the activity of antitumor agents

## C=C[C@H]1C[N@@]2CC[C@H]1C[C@@H]2[C@@H](O)c1ccnc2ccc(OC)cc12 [quinidine]
[10]
  enhancement of the activity of antitumor agents against resistant sublines of murine leukemia cells: enhance the activity of antitumor agents

## CN1CCN(CCCN2c3ccccc3Sc3ccc(C(F)(F)F)cc32)CC1 [trifluoperazine]
[10]
  enhancement of the activity of antitumor agents against resistant sublines of murine leukemia cells: enhance the activity of antitumor agents
